Here are results for 5 compounds from ChEMBL document CHEMBL3853332, “Pyrazolodiazepine derivatives with agonist activity toward Drosophila RYamide receptor” (Bioorg Med Chem Lett, 2016).

Assay [1] concerns the target T1, RYamide receptor (Drosophila melanogaster) (UniProt P25931).
T1 sequence (whole entry): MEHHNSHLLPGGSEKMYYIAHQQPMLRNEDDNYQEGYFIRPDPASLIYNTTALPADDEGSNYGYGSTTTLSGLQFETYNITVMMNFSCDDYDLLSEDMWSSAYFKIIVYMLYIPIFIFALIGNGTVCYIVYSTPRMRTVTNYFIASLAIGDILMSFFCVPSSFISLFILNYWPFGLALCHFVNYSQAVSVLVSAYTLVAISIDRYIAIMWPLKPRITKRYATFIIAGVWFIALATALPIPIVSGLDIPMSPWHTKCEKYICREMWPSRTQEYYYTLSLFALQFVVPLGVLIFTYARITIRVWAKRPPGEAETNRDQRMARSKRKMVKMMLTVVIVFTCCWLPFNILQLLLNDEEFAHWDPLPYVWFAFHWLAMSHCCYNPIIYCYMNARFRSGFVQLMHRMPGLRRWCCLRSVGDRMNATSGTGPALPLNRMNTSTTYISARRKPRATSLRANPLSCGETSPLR
The assay can be described thus: Agonist activity at Drosophila melanogaster RYamide receptor expressed in wild type CHO-K1 cells assessed as increase in calcium level at 0.01 mM after 20 secs by luminescence assay. The class given is cell-based.

In assay [2] the target is T1, RYamide receptor (Drosophila melanogaster). Nature of the assay: Partial agonist activity at Drosophila melanogaster RYamide receptor expressed in wild type CHO-K1 cells assessed as increase in calcium level at 5 uM after 20 secs by luminescence assay relative to RYamide-1. It counts as cell-based.
Assay [3] has as its target T2, RYamide receptor (Drosophila melanogaster, UniProt P25931).
T2 sequence (P25931 whole entry): T1 sequence (whole entry)
The assay can be described thus: Agonist activity at Drosophila melanogaster RYamide receptor expressed in wild type CHO-K1 cells assessed as increase in calcium level after 20 secs by luminescence assay. It counts as cell-based.

In assay [4] the target is T3, Neuropeptide F receptor (Drosophila melanogaster) (UniProt Q9VNM1).
T3 sequence (whole entry): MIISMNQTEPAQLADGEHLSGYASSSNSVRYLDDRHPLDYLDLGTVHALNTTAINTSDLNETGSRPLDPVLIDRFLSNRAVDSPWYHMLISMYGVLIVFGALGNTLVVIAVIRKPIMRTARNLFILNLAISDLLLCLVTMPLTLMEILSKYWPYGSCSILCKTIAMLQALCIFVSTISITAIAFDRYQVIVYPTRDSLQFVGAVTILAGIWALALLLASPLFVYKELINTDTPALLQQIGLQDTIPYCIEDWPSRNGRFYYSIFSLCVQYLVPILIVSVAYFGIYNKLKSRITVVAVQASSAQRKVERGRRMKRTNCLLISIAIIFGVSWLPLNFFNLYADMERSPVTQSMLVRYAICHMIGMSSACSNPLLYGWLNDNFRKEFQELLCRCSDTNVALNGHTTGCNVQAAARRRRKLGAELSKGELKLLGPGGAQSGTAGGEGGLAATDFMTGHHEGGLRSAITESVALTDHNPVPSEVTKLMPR
The assay can be described thus: Agonist activity at Drosophila melanogaster NPFR1 expressed in wild type CHO-K1 cells assessed as increase in calcium level at low nanomolar concentration after 20 secs by luminescence assay. It counts as functional, cell-based.

Active and inactive are the calls of the source. The rule behind the calls is not given here. Peptide text beside a SMILES is read from it.

With `CC(C)CN1C[C@H](CCCCN)NC(=S)c2nn(CC(C)C)cc21`, the outcome in assay [1] was Active. The Activity in assay [2] stood at 40%. In addition, the EC50 (in general, the concentration that produces a half-maximal response) in assay [3] was found to be 6.8 µM.
On to `Cc1noc(C)c1CN1CC(Cc2ccccc2)NC(=O)c2nn(CCC3CCN(C(=O)OC(C)(C)C)CC3)cc21` (stereo not drawn), for which the outcome in assay [1] was Active. The Activity in assay [2] worked out at 40%. Besides, in assay [3], the EC50 was 5.9 µM.
Turning to `CC(C)CN1C[C@@H](CCCCN)N=C(SCCC(=O)NN)c2nn(CC(C)C)cc21`, in assay [1], the result was Active. In assay [2], the Activity amounted to 40%. Moreover, in assay [3], the 50% effective concentration (EC50) came out at 20.9 µM.
Consider `CSCC[C@H](NC(=O)[C@@H](NC(=O)[C@H](CC(N)=O)NC(=O)[C@@H](NC(=O)[C@H](CC(=O)O)NC(=O)[C@H](CC(N)=O)NC(=O)[C@H](CCCCN)NC(=O)[C@H](CCCNC(=N)N)NC(=O)[C@@H]1CCCN1C(=O)[C@@H]1CCCN1C(=O)[C@H](CCCNC(=N)N)NC(=O)[C@H](CO)NC(=O)[C@H](CC(N)=O)NC(=O)[C@@H](N)CO)C(C)C)[C@@H](C)O)C(=O)N[C@@H](C)C(=O)N[C@@H](CC(=O)O)C(=O)N[C@@H](C)C(=O)N[C@@H](Cc1ccc(O)cc1)C(=O)N[C@@H](CCCCN)C(=O)N[C@@H](Cc1ccccc1)C(=O)N[C@@H](CC(C)C)C(=O)N[C@@H](CCC(N)=O)C(=O)N[C@@H](CC(=O)O)C(=O)N[C@@H](CC(C)C)C(=O)N[C@@H](CC(=O)O)C(=O)N[C@H](C(=O)N[C@@H](Cc1ccc(O)cc1)C(=O)N[C@@H](Cc1ccc(O)cc1)C(=O)NCC(=O)N[C@@H](CC(=O)O)C(=O)N[C@@H](CCCNC(=N)N)C(=O)N[C@@H](C)C(=O)N[C@@H](CCCNC(=N)N)C(=O)N[C@H](C(=O)N[C@@H](CCCNC(=N)N)C(=O)N[C@@H](Cc1ccccc1)C(=O)O)C(C)C)[C@@H](C)O` (H-SNSRPPRKNDVNTMADAYKFLQDLDTYYGDRARVRF-OH), for which, in assay [4], the outcome was Active.
Consider `CC(C)CN1C[C@H](CCCCN)N=C(SCCC(N)=O)c2nn(CC(C)C)cc21`, for which the result in assay [1] was Active. For the same compound, the Activity in assay [2] is 40%. For the same compound, the EC50 in assay [3] turned out to be 6.1 µM.
